Assay results as given in PubChem BioAssay (NCI).
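How tested: cells in 96-well plates exposed to compound for 48 hours at five concentrations. TGI: total growth inhibition.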

What was measured:
Test in all cases: NCI anticancer screen, dose series, 48 h
786-0 renal = system: 786-0 renal
A498 renal = system: A498 renal
A549 NSCLC = system: A549 NSCLC
ACHN renal = system: ACHN renal
BT-549 breast = system: BT-549 breast
CAKI-1 renal = system: CAKI-1 renal
CCRF-CEM leukemia = system: CCRF-CEM leukemia
COLO 205 colon = system: COLO 205 colon
DU-145 prostate = system: DU-145 prostate
EKVX NSCLC = system: EKVX NSCLC
HCC-2998 colon = system: HCC-2998 colon
HCT-116 colon = system: HCT-116 colon
HCT-15 colon = system: HCT-15 colon
HL-60(TB) leukemia = system: HL-60(TB) leukemia
HOP-62 NSCLC = system: HOP-62 NSCLC
HOP-92 NSCLC = system: HOP-92 NSCLC
HS 578T breast = system: HS 578T breast
HT29 colon = system: HT29 colon
IGROV1 ovarian = system: IGROV1 ovarian
KM12 colon = system: KM12 colon
LOX IMVI melanoma = system: LOX IMVI melanoma
M14 melanoma = system: M14 melanoma
MALME-3M melanoma = system: MALME-3M melanoma
MCF7 breast = system: MCF7 breast
MDA-MB-231 breast = system: MDA-MB-231 breast
MDA-MB-435 = system: MDA-MB-435
MDA-N = system: MDA-N
MOLT-4 leukemia = system: MOLT-4 leukemia
NCI-H226 lung = system: NCI-H226 lung
NCI-H23 lung = system: NCI-H23 lung
NCI-H460 lung = system: NCI-H460 lung
NCI/ADR-RES ovarian = system: NCI/ADR-RES ovarian
OVCAR-3 ovarian = system: OVCAR-3 ovarian
OVCAR-4 ovarian = system: OVCAR-4 ovarian
OVCAR-5 ovarian = system: OVCAR-5 ovarian
OVCAR-8 ovarian = system: OVCAR-8 ovarian
PC-3 prostate = system: PC-3 prostate
SF-268 CNS = system: SF-268 CNS
SF-295 CNS = system: SF-295 CNS
SF-539 CNS = system: SF-539 CNS
SK-MEL-2 melanoma = system: SK-MEL-2 melanoma
SK-MEL-28 melanoma = system: SK-MEL-28 melanoma
SK-MEL-5 melanoma = system: SK-MEL-5 melanoma
SN12C renal = system: SN12C renal
SNB-19 CNS = system: SNB-19 CNS
SNB-75 CNS = system: SNB-75 CNS
SR leukemia = system: SR leukemia
SW-620 colon = system: SW-620 colon
T-47D breast = system: T-47D breast
TK-10 renal = system: TK-10 renal
U251 CNS = system: U251 CNS
UACC-257 melanoma = system: UACC-257 melanoma
UACC-62 melanoma = system: UACC-62 melanoma
UO-31 renal = system: UO-31 renal
K-562 leukemia = system: K-562 leukemia
RPMI-8226 leukemia = system: RPMI-8226 leukemia
RXF 393 renal = system: RXF 393 renal
SK-OV-3 ovarian = system: SK-OV-3 ovarian

CCOc1ccc(N=NC2C(=O)N(C(=O)CC(=O)Nc3ccc(C)cc3)N=C2C)cc1 (centres undefined)
TGI (786-0 renal): 29.5 µM | TGI (A498 renal): 52.5 µM | TGI (A549 NSCLC): > 100 µM | TGI (ACHN renal): > 100 µM | TGI (BT-549 breast): > 100 µM | TGI (CAKI-1 renal): > 100 µM | TGI (CCRF-CEM leukemia): > 100 µM | TGI (COLO 205 colon): > 100 µM | TGI (DU-145 prostate): > 100 µM | TGI (EKVX NSCLC): 40.9 µM | TGI (HCC-2998 colon): > 100 µM | TGI (HCT-116 colon): 25.8 µM | TGI (HCT-15 colon): > 100 µM | TGI (HL-60(TB) leukemia): > 100 µM | TGI (HOP-62 NSCLC): 34.3 µM | TGI (HOP-92 NSCLC): 39.9 µM | TGI (HS 578T breast): 40.1 µM | TGI (HT29 colon): > 100 µM | TGI (IGROV1 ovarian): > 100 µM | TGI (KM12 colon): > 100 µM | TGI (LOX IMVI melanoma): 27.7 µM | TGI (M14 melanoma): > 100 µM | TGI (MALME-3M melanoma): > 100 µM | TGI (MCF7 breast): > 100 µM | TGI (MDA-MB-231 breast): 35.8 µM | TGI (MDA-MB-435): 10.9 µM | TGI (MDA-N): 13.9 µM | TGI (MOLT-4 leukemia): > 100 µM | TGI (NCI-H226 lung): 88.4 µM | TGI (NCI-H23 lung): > 100 µM | TGI (NCI-H460 lung): 43.8 µM | TGI (NCI/ADR-RES ovarian): 79.2 µM | TGI (OVCAR-3 ovarian): > 100 µM | TGI (OVCAR-4 ovarian): 95.7 µM | TGI (OVCAR-5 ovarian): > 100 µM | TGI (OVCAR-8 ovarian): 31.2 µM | TGI (PC-3 prostate): > 100 µM | TGI (SF-268 CNS): 75.2 µM | TGI (SF-295 CNS): 49.4 µM | TGI (SF-539 CNS): 36.5 µM | TGI (SK-MEL-2 melanoma): > 100 µM | TGI (SK-MEL-28 melanoma): > 100 µM | TGI (SK-MEL-5 melanoma): > 100 µM | TGI (SN12C renal): > 100 µM | TGI (SNB-19 CNS): 51 µM | TGI (SNB-75 CNS): 23.2 µM | TGI (SR leukemia): > 100 µM | TGI (SW-620 colon): > 100 µM | TGI (T-47D breast): > 100 µM | TGI (TK-10 renal): 93.2 µM | TGI (U251 CNS): 32.2 µM | TGI (UACC-257 melanoma): > 100 µM | TGI (UACC-62 melanoma): 52.6 µM | TGI (UO-31 renal): 78.7 µM

COP(=O)(OC)C(C)(C)NC(=O)NC(F)(F)F
TGI (786-0 renal): > 100 µM | TGI (A549 NSCLC): > 100 µM | TGI (ACHN renal): > 100 µM | TGI (BT-549 breast): > 100 µM | TGI (CAKI-1 renal): 16.6 µM | TGI (CCRF-CEM leukemia): > 100 µM | TGI (COLO 205 colon): > 100 µM | TGI (DU-145 prostate): > 100 µM | TGI (EKVX NSCLC): > 100 µM | TGI (HCC-2998 colon): > 100 µM | TGI (HCT-116 colon): > 100 µM | TGI (HCT-15 colon): > 100 µM | TGI (HL-60(TB) leukemia): > 100 µM | TGI (HOP-62 NSCLC): > 100 µM | TGI (HS 578T breast): > 100 µM | TGI (HT29 colon): > 100 µM | TGI (IGROV1 ovarian): > 100 µM | TGI (K-562 leukemia): > 100 µM | TGI (KM12 colon): > 100 µM | TGI (LOX IMVI melanoma): > 100 µM | TGI (M14 melanoma): > 100 µM | TGI (MALME-3M melanoma): > 100 µM | TGI (MCF7 breast): > 100 µM | TGI (MDA-MB-231 breast): > 100 µM | TGI (MDA-MB-435): > 100 µM | TGI (MDA-N): > 100 µM | TGI (MOLT-4 leukemia): > 100 µM | TGI (NCI-H226 lung): 91.1 µM | TGI (NCI-H23 lung): > 100 µM | TGI (NCI-H460 lung): > 100 µM | TGI (NCI/ADR-RES ovarian): > 100 µM | TGI (OVCAR-3 ovarian): > 100 µM | TGI (OVCAR-4 ovarian): > 100 µM | TGI (OVCAR-5 ovarian): > 100 µM | TGI (OVCAR-8 ovarian): > 100 µM | TGI (PC-3 prostate): > 100 µM | TGI (RPMI-8226 leukemia): > 100 µM | TGI (RXF 393 renal): > 100 µM | TGI (SF-268 CNS): > 100 µM | TGI (SF-295 CNS): > 100 µM | TGI (SF-539 CNS): > 100 µM | TGI (SK-MEL-2 melanoma): > 100 µM | TGI (SK-MEL-28 melanoma): > 100 µM | TGI (SK-MEL-5 melanoma): > 100 µM | TGI (SK-OV-3 ovarian): > 100 µM | TGI (SN12C renal): > 100 µM | TGI (SNB-19 CNS): > 100 µM | TGI (SNB-75 CNS): > 100 µM | TGI (SR leukemia): > 100 µM | TGI (SW-620 colon): > 100 µM | TGI (T-47D breast): > 100 µM | TGI (TK-10 renal): > 100 µM | TGI (U251 CNS): > 100 µM | TGI (UACC-257 melanoma): > 100 µM | TGI (UACC-62 melanoma): > 100 µM | TGI (UO-31 renal): > 100 µM

O=C1/C(=C/c2cccc([N+](=O)[O-])c2)N=C(c2ccccc2)N1c1nc2c(Cl)cc(Cl)cc2s1
TGI (786-0 renal): > 100 µM | TGI (A498 renal): 57.8 µM | TGI (A549 NSCLC): 52.2 µM | TGI (ACHN renal): 74.2 µM | TGI (BT-549 breast): 94.6 µM | TGI (CAKI-1 renal): > 100 µM | TGI (CCRF-CEM leukemia): 23.5 µM | TGI (COLO 205 colon): > 100 µM | TGI (DU-145 prostate): 70.1 µM | TGI (EKVX NSCLC): 53.3 µM | TGI (HCC-2998 colon): 61.9 µM | TGI (HCT-116 colon): 37.4 µM | TGI (HCT-15 colon): > 100 µM | TGI (HL-60(TB) leukemia): 60.9 µM | TGI (HOP-62 NSCLC): 45 µM | TGI (HOP-92 NSCLC): 77.9 µM | TGI (HS 578T breast): 73.6 µM | TGI (HT29 colon): 40 µM | TGI (IGROV1 ovarian): 58.2 µM | TGI (K-562 leukemia): > 100 µM | TGI (KM12 colon): 45 µM | TGI (LOX IMVI melanoma): 32.7 µM | TGI (M14 melanoma): 46.8 µM | TGI (MCF7 breast): 93.8 µM | TGI (MDA-MB-231 breast): > 100 µM | TGI (MDA-MB-435): 46 µM | TGI (MDA-N): 39.2 µM | TGI (MOLT-4 leukemia): 71.8 µM | TGI (NCI-H460 lung): > 100 µM | TGI (NCI/ADR-RES ovarian): 85.4 µM | TGI (OVCAR-3 ovarian): 39.1 µM | TGI (OVCAR-4 ovarian): 71.8 µM | TGI (OVCAR-5 ovarian): 87.9 µM | TGI (OVCAR-8 ovarian): 49.5 µM | TGI (PC-3 prostate): 64.4 µM | TGI (RPMI-8226 leukemia): > 100 µM | TGI (RXF 393 renal): 55 µM | TGI (SF-268 CNS): 78.1 µM | TGI (SF-295 CNS): > 100 µM | TGI (SF-539 CNS): 48.1 µM | TGI (SK-MEL-2 melanoma): 48 µM | TGI (SK-MEL-28 melanoma): > 100 µM | TGI (SK-MEL-5 melanoma): 33.5 µM | TGI (SK-OV-3 ovarian): 85.7 µM | TGI (SN12C renal): 54.7 µM | TGI (SNB-19 CNS): 65.4 µM | TGI (SR leukemia): 57.9 µM | TGI (SW-620 colon): 73.1 µM | TGI (T-47D breast): 68.9 µM | TGI (TK-10 renal): > 100 µM | TGI (U251 CNS): 37.2 µM | TGI (UACC-257 melanoma): > 100 µM | TGI (UACC-62 melanoma): > 100 µM | TGI (UO-31 renal): 49.6 µM
